From PubChem BioAssay AID2060355 (Molecular Pharmacology Branch, DTP, NCI, 2025)

Tested on: 485368-065-R4-J2-PDC spheroids with HUVEC/MSC, viability
Test: Anticancer human tumor 485368-065-R4-J2-PDC patient-derived pancreatic carcinoma cell line growth inhibition [TAK]
Details: for IC50: curve of first compound; for viability, T/C: stronger effect = lower value
Source text: Combinatorial screen of targeted agents with TAK-243 and ipatasertib in multi-cell type tumor spheroids
A high-throughput screen of multi-cell type tumor spheroids was designed to identify active combinations of targeted small molecules and TAK-243 or ipatasertib. Complex spheroids include a stromal component modeled by human endothelial cells (HUVEC) and fibroblasts modeled by human mesenchymal stem cells (MSCs). The concentration ranges selected for each drug and investigational agent were based upon clinically achievable concentrations if the clinical Cmax of the agent was known.
Compounds. The drugs and investigational agents: TAK-243 (785004), ipatasertib (767898), everolimus (733504), selumetinib (741078), bortezomib (756655), trametinib (758246), ixazomib (758254), vemurafenib (761431), dabrafenib (764134), sapanisertib (764658), alpelisib (765974), and copanlisib (816437), were obtained from the National Cancer Institute (NCI) Developmental Therapeutics Program Chemical Repository. The FDA-approved anticancer drug set is available from the NCI Developmental Therapeutics Program. […] The stock solutions were prepared in dimethyl sulfoxide (DMSO, Sigma-Aldrich, St. Louis, MO, cat. D2650) at 800-fold the tested concentration and stored at -70 degrees C prior to their use. All drugs and investigational agents were tested over a range starting from a high concentration at or near the clinical Cmax and decreasing in half-log increments. If the clinical Cmax for an agent had not been determined, the highest concentration tested was 10 microM.
NCI60 Cell Culture. NCI60 cell lines were obtained from the NCI Developmental Therapeutics Program Tumor Repository. For each lot of cells, the Repository performed Applied Biosystems AmpFLSTR Identifiler testing with PCR amplification to confirm consistency with the published Identifier STR profile for each cell line. Cells were kept in continuous culture for no more than 20 passages. The optimal seeding densities for each of the cell lines at each time point assessed were determined prior to performing the concentration response studies. Briefly, the NCI60 human tumor lines were grown as monolayers in RPMI 1640 medium supplemented with 10% FBS and 2 mmol/L L-glutamine.
An additional 2 lines were from the NCI60 cell line panel including melanomas, MALME-3M and SK-MEL-2. Pooled donor human umbilical vein endothelial cells (HUVEC, Lonza, cat. CC-2519) and human mesenchymal stem cells (hMSC, Lonza, cat. PT-2501) were purchased from Lonza (Walkersville, MD).
PDMR cell lines were grown in complete medium (DC medium): Dulbecco's modified Eagle's medium (DMEM)/F12 supplemented with 5% fetal bovine serum (FBS), 2 mM L-glutamine, 100 U/mL penicillin and 100 µg/ml streptomycin, 0.4 µg/ml hydrocortisone, 10 ng/ml epidermal growth factor (EGF) recombinant human protein, 24 µg/mL adenine, and 0.1 mg/mL primocin. During culture from frozen stock vials, PDMR cells were cultured in the same medium containing 10 µM Y-27632 (see Table 3). The PDCs were cultured in complete DMEM/F12 media without 10 microM Y-27632 dihydrochloride for at least two passages prior to the screen. The pooled donor HUVEC and hMSC were cultured in endothelial cell growth medium 2 (PromoCell, Heidelberg, Germany, cat. C-22011) and mesenchymal stem cell growth medium 2 (PromoCell, cat. C-28009), respectively. For all experiments, HUVEC and hMSC were used at passages </=5.
For the pre-screen, cell seeding densities were determined from a titration spanning the range from 5,000 to 313 cells per well. The mct-spheroids including 60% malignant cells, 25% HUVEC and 15% MSC dispensed as a mixture into U-bottom Ultra-Low Attachment 384-well plates (Corning, NY)
High-throughput Drug Combination Screening.
Prior to their inoculation into 384-well plates, malignant cells, HUVEC, and hMSC were removed from T flasks using TrypLE express (Thermo Fisher Scientific, cat. 12605036) and harvested by centrifugation for 5 min at 233 x g. […]

[1] = second compound 0.3 µM, first compound 0.0316 µM
[2] = second compound 0.3 µM, first compound 0.1 µM
[3] = second compound 0.949 µM, first compound 0.0316 µM
[4] = second compound 0.949 µM, first compound 0.1 µM
[5] = second compound 3 µM, first compound 0.0316 µM
[6] = second compound 3 µM, first compound 0.1 µM
[7] = second compound 9.49 µM, first compound 0.0316 µM
[8] = second compound 9.49 µM, first compound 0.1 µM
[9] = second compound 30 µM, first compound 0.0316 µM
[10] = second compound 30 µM, first compound 0.1 µM
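Note: spheroids exposed to compounds for seven days before readout.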
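Throughout, for viability, T/C: 100% = DMSO vehicle control wells.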

**Q.** With CC(C)CC(NC(=O)CNC(=O)c1cc(Cl)ccc1Cl)B1OC(=O)CC(CC(=O)O)(C(=O)O)O1 (stereo not given) + CC(C)NCC(C(=O)N1CCN(c2ncnc3c2C(C)CC3O)CC1)c1ccc(Cl)cc1 as the compound, how does the IC50 (second compound 0.3 µM) read?
**A.** Its IC50 is 37.7 nM.

**Q.** And the IC50 (second compound 0.949 µM)?
**A.** The IC50 was 31.3 nM.

**Q.** And the IC50 (second compound 3 µM)?
**A.** Its IC50 is 25.6 nM.

**Q.** And the IC50 (second compound 9.49 µM)?
**A.** Its IC50 is 24.8 nM.

**Q.** And the IC50 (second compound 30 µM)?
**A.** The IC50 was 19.7 nM.

**Q.** What about the viability, T/C (second compound 0.3 µM, first compound 0.000316 µM) of the same compound?
**A.** The viability, T/C was 89.7%.

**Q.** And the viability, T/C (second compound 0.3 µM, first compound 0.001 µM)?
**A.** The viability, T/C was 93.9%.

**Q.** What about the viability, T/C (second compound 0.3 µM, first compound 0.00316 µM) of the same compound?
**A.** The viability, T/C was 98.7%.

**Q.** What about the viability, T/C (second compound 0.3 µM, first compound 0.01 µM) of the same compound?
**A.** The viability, T/C was 106%.

**Q.** What about the viability, T/C [1] of the same compound?
**A.** The viability, T/C was 56.7%.

**Q.** And the viability, T/C [2]?
**A.** Its viability, T/C is 12.8%.

**Q.** And the viability, T/C (second compound 0.949 µM, first compound 0.000316 µM)?
**A.** Its viability, T/C is 98.4%.

**Q.** And the viability, T/C (second compound 0.949 µM, first compound 0.001 µM)?
**A.** The viability, T/C was 99%.

**Q.** What about the viability, T/C (second compound 0.949 µM, first compound 0.00316 µM) of the same compound?
**A.** The viability, T/C was 97.5%.

**Q.** And the viability, T/C (second compound 0.949 µM, first compound 0.01 µM)?
**A.** Its viability, T/C is 106%.

**Q.** What about the viability, T/C [3] of the same compound?
**A.** The viability, T/C was 49.6%.

**Q.** What about the viability, T/C [4] of the same compound?
**A.** The viability, T/C was 12.5%.

**Q.** And the viability, T/C (second compound 3 µM, first compound 0.000316 µM)?
**A.** The viability, T/C was 103%.

**Q.** And the viability, T/C (second compound 3 µM, first compound 0.001 µM)?
**A.** Its viability, T/C is 99.6%.

**Q.** What about the viability, T/C (second compound 3 µM, first compound 0.00316 µM) of the same compound?
**A.** The viability, T/C was 99.2%.

**Q.** And the viability, T/C (second compound 3 µM, first compound 0.01 µM)?
**A.** The viability, T/C was 92.6%.

**Q.** What about the viability, T/C [5] of the same compound?
**A.** Its viability, T/C is 40.5%.

**Q.** And the viability, T/C [6]?
**A.** Its viability, T/C is 9.51%.

**Q.** What about the viability, T/C (second compound 9.49 µM, first compound 0.000316 µM) of the same compound?
**A.** Its viability, T/C is 94.7%.

**Q.** And the viability, T/C (second compound 9.49 µM, first compound 0.001 µM)?
**A.** Its viability, T/C is 87.3%.

**Q.** And the viability, T/C (second compound 9.49 µM, first compound 0.00316 µM)?
**A.** The viability, T/C was 89.5%.

**Q.** And the viability, T/C (second compound 9.49 µM, first compound 0.01 µM)?
**A.** The viability, T/C was 92.6%.

**Q.** What about the viability, T/C [7] of the same compound?
**A.** The viability, T/C was 39%.

**Q.** What about the viability, T/C [8] of the same compound?
**A.** The viability, T/C was 9.49%.

**Q.** What about the viability, T/C (second compound 30 µM, first compound 0.000316 µM) of the same compound?
**A.** Its viability, T/C is 76.9%.

**Q.** What about the viability, T/C (second compound 30 µM, first compound 0.001 µM) of the same compound?
**A.** The viability, T/C was 80.2%.

**Q.** And the viability, T/C (second compound 30 µM, first compound 0.00316 µM)?
**A.** Its viability, T/C is 81%.

**Q.** What about the viability, T/C (second compound 30 µM, first compound 0.01 µM) of the same compound?
**A.** Its viability, T/C is 76.7%.

**Q.** What about the viability, T/C [9] of the same compound?
**A.** Its viability, T/C is 31.3%.

**Q.** What about the viability, T/C [10] of the same compound?
**A.** The viability, T/C was 7.82%.

**Q.** What does the source list for Cc1nc(NC(=O)N2CCCC2C(N)=O)sc1-c1ccnc(C(C)(C)C(F)(F)F)c1 (stereo not given) + CC(C)NCC(C(=O)N1CCN(c2ncnc3c2C(C)CC3O)CC1)c1ccc(Cl)cc1?
**A.** IC50 (second compound 0.3 µM): > 10000 nM; IC50 (second compound 0.949 µM): 9660 nM; IC50 (second compound 3 µM): 7350 nM; IC50 (second compound 9.49 µM): 2670 nM; IC50 (second compound 30 µM): 1220 nM; viability, T/C [1]: 88.2%; viability, T/C [2]: 79.8%; viability, T/C (second compound 0.3 µM, first compound 0.316 µM): 81.9%; viability, T/C (second compound 0.3 µM, first compound 1 µM): 88.3%; viability, T/C (second compound 0.3 µM, first compound 3.16 µM): 75.9%; viability, T/C (second compound 0.3 µM, first compound 10 µM): 51.1%; viability, T/C [3]: 93.9%; viability, T/C [4]: 92%; viability, T/C (second compound 0.949 µM, first compound 0.316 µM): 102%; viability, T/C (second compound 0.949 µM, first compound 1 µM): 93.5%; viability, T/C (second compound 0.949 µM, first compound 3.16 µM): 73.4%; viability, T/C (second compound 0.949 µM, first compound 10 µM): 49.3%; viability, T/C [5]: 95.1%; viability, T/C [6]: 92.2%; viability, T/C (second compound 3 µM, first compound 0.316 µM): 86%; viability, T/C (second compound 3 µM, first compound 1 µM): 73.7%; viability, T/C (second compound 3 µM, first compound 3.16 µM): 64.3%; viability, T/C (second compound 3 µM, first compound 10 µM): 44.8%; viability, T/C [7]: 80.3%; viability, T/C [8]: 85.2%; viability, T/C (second compound 9.49 µM, first compound 0.316 µM): 74.1%; viability, T/C (second compound 9.49 µM, first compound 1 µM): 66%; viability, T/C (second compound 9.49 µM, first compound 3.16 µM): 46.8%; viability, T/C (second compound 9.49 µM, first compound 10 µM): 37.2%; viability, T/C [9]: 71.5%; viability, T/C [10]: 71.2%; viability, T/C (second compound 30 µM, first compound 0.316 µM): 59.5%; viability, T/C (second compound 30 µM, first compound 1 µM): 53.5%; viability, T/C (second compound 30 µM, first compound 3.16 µM): 39.7%; viability, T/C (second compound 30 µM, first compound 10 µM): 28.3%
